Patent publication US20050220834A1 (priority 2004, published 2005)

System: bipolaris sorokininan
Assay: Seed treatment: disease prevention and yield keeping on wheat
Assay type: in vivo
Conditions: treated seeds
Method: Seeds treaed with FA whose weight amount to 0.2% seed by weight have disease prevention effect for bipolaris sorokininan and yield keeping effect. After the seeds were treated, the wheat developed well and occurrence of powdery mildew was less compared to blank. Yield keeping effect of mixture of FAn and triazolone was improved from 7.79% of single use of triazolone to 10.67%.

For `CC(C)(C)C(=O)C(Oc1ccc(Cl)cc1)n1cncn1` (stereo not shown) [triazolone], the “yield keeping effect (%)” value was 7.79%.
